Results from patent US20200055817A1 (AbbVie Deutschland GmbH & Co. KG, priority 2016, published 2020).
Counter-ions that a name gives are not always drawn.

Key:
Format in all cases: cell-based
[1] = molecular target: T1, human EDG8 (S1PR5) receptor (Homo sapiens, UniProt Q9H228); experiment: Aequorin assay, agonist potency, CHO-A21-EDG8#12 cells; conditions: agonist mode, aequorin luminescence; read-out: S1P5 EC50 range #
T1 construct: carries the transgenes human EDG8 (S1PR5) receptor (Acession number NP_110387.1); expressed in transfected cells; host or cells: CHO-A21-EDG8#12 (CHO clone co-expressing mitochondrial aequorin and chimaeric Gaqi5)
T1 sequence (Q9H228 whole entry): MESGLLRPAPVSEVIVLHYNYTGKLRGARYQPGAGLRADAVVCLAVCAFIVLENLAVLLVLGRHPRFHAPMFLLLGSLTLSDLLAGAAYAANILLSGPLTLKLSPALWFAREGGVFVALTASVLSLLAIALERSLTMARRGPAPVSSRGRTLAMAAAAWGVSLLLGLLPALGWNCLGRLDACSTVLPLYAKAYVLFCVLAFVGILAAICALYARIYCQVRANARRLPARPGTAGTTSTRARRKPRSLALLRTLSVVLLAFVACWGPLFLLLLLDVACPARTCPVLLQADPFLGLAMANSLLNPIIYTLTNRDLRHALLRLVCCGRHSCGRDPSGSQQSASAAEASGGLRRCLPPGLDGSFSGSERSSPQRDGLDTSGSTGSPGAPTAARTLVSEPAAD
In short: (§1)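 CHO cells coexpressing receptor, mitochondrial aequorin and Gαqi5 (S1P3 pool: GNA16) were loaded overnight at RT with 5 μM coelenterazine h in 0.1% fatty-acid-free BSA buffer. Cells were injected onto compound, luminescence recorded 90 s and integrated, normalised to digitonin or 20 μM ATP; sigmoidal fit.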

[2] = molecular target: T2, human EDG1 (S1PR1) receptor (Homo sapiens, UniProt P21453); experiment: Aequorin assay, agonist potency, CHO-A21-Edg1#17 cells; conditions: agonist mode, aequorin luminescence; read-out: S1P1 EC50
T2 construct: expressed in transfected cells; host or cells: CHO-A21-Edg1#17 (CHO clone co-expressing mitochondrial aequorin and chimaeric Gaqi5)
T2 sequence (P21453 whole entry): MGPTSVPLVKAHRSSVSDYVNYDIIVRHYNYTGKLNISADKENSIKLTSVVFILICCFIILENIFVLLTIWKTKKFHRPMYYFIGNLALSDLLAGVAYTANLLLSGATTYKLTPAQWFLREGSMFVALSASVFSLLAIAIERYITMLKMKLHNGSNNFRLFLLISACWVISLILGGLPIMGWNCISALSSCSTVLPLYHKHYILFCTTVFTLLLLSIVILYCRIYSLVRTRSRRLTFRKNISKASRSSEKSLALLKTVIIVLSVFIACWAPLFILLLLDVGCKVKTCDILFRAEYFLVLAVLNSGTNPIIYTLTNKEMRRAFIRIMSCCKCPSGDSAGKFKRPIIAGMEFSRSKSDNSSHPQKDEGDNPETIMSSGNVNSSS
In short: as §1

[3] = molecular target: T3, human EDG3 (S1PR3) receptor (Homo sapiens, UniProt Q99500); experiment: Aequorin assay, agonist potency, CHO-A2-S1P3 Mix cells; conditions: agonist mode, aequorin luminescence
T3 construct: expressed in transfected cells; host or cells: CHO-A2-S1P3 Mix (CHO cell pool co-expressing mitochondrial aequorin and GNA16)
T3 sequence (Q99500 whole entry): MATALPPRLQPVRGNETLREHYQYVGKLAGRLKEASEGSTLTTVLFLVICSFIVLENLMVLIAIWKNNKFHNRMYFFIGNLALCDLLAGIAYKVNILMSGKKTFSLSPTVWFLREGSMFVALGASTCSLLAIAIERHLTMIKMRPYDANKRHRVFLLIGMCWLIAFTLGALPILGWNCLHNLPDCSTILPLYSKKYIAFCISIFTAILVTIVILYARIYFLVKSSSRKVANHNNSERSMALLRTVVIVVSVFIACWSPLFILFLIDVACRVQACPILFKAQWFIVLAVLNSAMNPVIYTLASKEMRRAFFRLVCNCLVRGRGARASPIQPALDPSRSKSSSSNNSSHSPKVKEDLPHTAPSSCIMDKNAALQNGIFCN
Method: Agonistic activity was measured as described below.
Cell clone CHO-A21-Edg1#17 carries the transgenes human EDG1 (S1PR1) receptor (Accession number NP_001391.2), mitochondrially targeted Aequorin (active part corresponds to accession number 1SL8_A) and chimaeric Gaqi5=Gaq modified with the 5 C-terminal amino-acids replaced with those of the Gai protein (DCGLF). CHO-A2-S1P3 Mix is a cell pool ectopically expressing human EDG3 (S1PR3) receptor (Accession number NP_005217.2) mitochondrially targeted Aequorin (active part has a sequence similar to accession number AY601106.1) and GNA16 (Accession number NP_002059.3). Cell clone CHO-A21-EDG8#12 carries the transgenes human EDG8 (S1PR5) receptor (Acession number NP_110387.1), mitochondrially expressed Aequorin (active part corresponds to accession number 1SL8_A) and chimaeric Gaqi5 (Gaq modified to present the 5 last amino-acids of the Gai protein “DCGLF”; see above). Cells are grown to mid-log phase in culture medium (HAM's F12, 10% FBS, 100 IU/mL penicillin, 100 μg/mL streptomycin, 250 μg/mL Zeocin, 400 μg/mL G418). 18 hours prior to frozen cells preparation, the medium is changed to remove the antibiotics.
18 hours prior to the test, vials of frozen cells are quickly thawed in a 37° C. water bath, cells are recovered by centrifugation and resuspended in assay buffer (DMEM/HAM's F12 with HEPES, without phenol red+0.1% fatty acid-free BSA). Cells are gently agitated in suspension overnight at RT in presence of 5 μM of Coelenterazine h (Molecular Probes). On the day of the test, cells are diluted to their final working concentrations in assay buffer and agitated in suspension for 1 h at RT. Cells are then placed in the luminescence reader (Hamamatsu Functional Drug Screening System 6000, FDSS6000). During cells incubation, compounds are prepared in 100% DMSO, and subsequently diluted in assay buffer. Compounds are then dispensed in the assay plate (black, clear-bottom, 384-well plate). After binding of agonists to the human S1P receptor the intracellular calcium concentration increases and binding of calcium to the Aequorin/Coelenterazine complex leads to an oxidation reaction of coelenterazine, which results in the production of Aequorin, coelenteramide, CO2 and light (Dmax 469 nm). The luminescent response is dependent on the agonist concentration. For agonist testing, 30 μL of cell suspension are injected on 30 μL of test compound or reference agonist in the assay plate. The resulting emission of light is recorded for 90 seconds using the FDSS6000. Dose response curves with the reference compounds are performed before testing the compounds. S1P is the reference agonist and JTE-013 the reference antagonist for S1P2.
Luminescence data are integrated over the reading interval for agonist and antagonist modes. To standardize the emission of recorded light (determination of the “100% signal”) across plates and across different experiments, some of the wells contain 100 μM digitonin or a saturating concentration of ATP (20 μM). Plates also contain the reference agonist at a concentration equivalent to the EC80 obtained during the test validation and the EC100. Dose-response data from test compounds were analyzed with XLfit (IDBS) software using nonlinear regression applied to a sigmoidal dose-response model and the following equation: […]

S1P4 = molecular target: T4, S1P4 (Homo sapiens, UniProt O95977); experiment: Aequorin assay, agonist potency, S1P4; conditions: agonist mode, aequorin luminescence
T4 sequence (O95977 1-384): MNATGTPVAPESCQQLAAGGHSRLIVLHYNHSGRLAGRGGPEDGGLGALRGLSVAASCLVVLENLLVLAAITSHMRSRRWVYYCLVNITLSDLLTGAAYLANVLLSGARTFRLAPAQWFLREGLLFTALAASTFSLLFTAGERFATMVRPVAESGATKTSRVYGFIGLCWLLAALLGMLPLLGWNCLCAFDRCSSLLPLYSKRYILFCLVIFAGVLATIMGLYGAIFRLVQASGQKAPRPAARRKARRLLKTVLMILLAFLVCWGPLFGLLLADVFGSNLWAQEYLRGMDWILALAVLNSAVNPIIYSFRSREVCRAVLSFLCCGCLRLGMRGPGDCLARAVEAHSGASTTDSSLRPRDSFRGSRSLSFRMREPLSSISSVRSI
In short: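 Aequorin luminescence read over 90 s after adding coelenterazine h–loaded cells (5 μM, overnight, RT) to test compound in phenol red-free DMEM/F12 buffer containing 0.1% fatty acid-free BSA. Responses integrated, scaled to the 100% signal from 100 μM digitonin or 20 μM ATP, and fitted to a sigmoidal dose-response model.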

SMILES	EC50 [1] [µM]	EC50 [2] [µM]	EC50 [3] [µM]	EC50 (S1P4) [µM]
O=C(O)CCN1CC2(Cc3ccc(OCc4ccccc4)cc3C2)C1 [Example 6, 3-(5′-(benzyloxy)-1′,3′-dihydrospiro[azetidine-3,2′-inden]-1-yl)propanoic acid hydrochloride]	1 to 10	> 1	> 1	< 1
O=C(O)CN1CC2(Cc3ccc(OCc4ccccc4)cc3C2)C1 [Example 8, 2-(5′-(benzyloxy)-1′,3′-dihydrospiro[azetidine-3,2′-inden]-1-yl)acetic acid]	0.1 to 1	> 1	> 1	< 1
O=C(O)CN1CC2(Cc3ccc(OCc4ccc(Cl)cc4)cc3C2)C1 [Example 11, 2-(5′-((4-chlorobenzyl)oxy)-1′,3′-dihydrospiro[azetidine-3,2′-inden]-1-yl)acetic acid]	1 to 10	> 1	> 1	< 1
O=C(O)CN1CC2(Cc3ccc(OCc4cc(F)cc(F)c4)cc3C2)C1 [Example 14, 2-(5′-((3,5-difluorobenzyl)oxy)-1′,3′-dihydrospiro[azetidine-3,2′-inden]-1-yl)acetic acid]	0.01 to 0.1	> 1	> 1	< 1
O=C(O)CN1CC2(Cc3ccc(OCc4ccc(Cl)c(Cl)c4)cc3C2)C1 [Example 25, 2,2,2-trifluoroacetic acid compound with 2-(5′-((3,4-dichlorobenzyl)oxy)-1′,3′-dihydrospiro[azetidine-3,2′-inden]-1-yl)acetic acid (1:1)]	0.01 to 0.1	> 1	> 1	< 1
O=C(O)CN1CC2(Cc3ccc(C#Cc4cccc(Cl)c4)cc3O2)C1 [Example 152, 2-(6′-((3-chlorophenyl)ethynyl)-3′H-spiro[azetidine-3,2′-benzofuran]-1-yl)acetic acid]	≤ 0.01	> 1	–	< 1
O=C(O)CN1CC2(Cc3ccc(C#Cc4ccccc4Cl)cc3O2)C1 [Example 153, 2-(6′-((2-chlorophenyl)ethynyl)-3′H-spiro[azetidine-3,2′-benzofuran]-1-yl)acetic acid]	≤ 0.01	> 1	–	< 1
CCOc1ccc(C#Cc2ccc3c(c2)OC2(C3)CN(CC(=O)O)C2)cc1 [Example 154, 2-(6′-((4-ethoxyphenyl)ethynyl)-3′H-spiro[azetidine-3,2′-benzofuran]-1-yl)acetic acid]	0.01 to 0.1	< 1	–	> 1
CC1CCC(C#Cc2ccc3c(c2)OC2(C3)CN(CC(=O)O)C2)CC1 (stereo not shown) [Example 155, 2-(6′-((4-methylcyclohexyl)ethynyl)-3′H-spiro[azetidine-3,2′-benzofuran]-1-yl)acetic acid]	0.1 to 1	> 1	–	< 1
CCc1cccc(Cl)c1COc1ccc2c(c1)OC1(C2)CN(CC2(C(=O)O)CC2)C1 [Example 156, 1-((6′-((2-chloro-6-ethylbenzyl)oxy)-3′H-spiro[azetidine-3,2′-benzofuran]-1-yl)methyl)cyclopropanecarboxylic acid]	≤ 0.01	> 1	–	< 1
CCc1cccc(Cl)c1COc1ccc2c(c1)OC1(C2)CN(CC(C)CC(=O)O)C1 (stereo not shown) [Example 157, 4-(6′-((2-chloro-6-ethylbenzyl)oxy)-3′H-spiro[azetidine-3,2′-benzofuran]-1-yl)-3-methylbutanoic acid]	≤ 0.01	> 1	–	< 1
CCc1cccc(Cl)c1COc1ccc2c(c1)OC1(C2)CN(CC(=O)O)C1 [Example 158, 2-(6′-((2-chloro-6-ethylbenzyl)oxy)-3′H-spiro[azetidine-3,2′-benzofuran]-1-yl)acetic acid]	≤ 0.01	< 1	–	< 1

More lines, now with the values ahead:

EC50 [1] [µM]	EC50 [2] [µM]	EC50 [3] [µM]	EC50 (S1P4) [µM]	SMILES
≤ 0.01	> 1	> 1	< 1	CCc1cccc(Cl)c1COc1ccc2c(c1)CC1(C2)CN(CCC(=O)O)C1 [Example 7, 3-(5′-((2-chloro-6-ethylbenzyl)oxy)-1′,3′-dihydrospiro[azetidine-3,2′-inden]-1-yl)propanoic acid hydrochloride]
≤ 0.01	> 1	> 1	< 1	O=C(O)CN1CC2(Cc3ccc(OCc4c(Cl)cccc4C4CC4)cc3C2)C1 [Example 15, 2-(5′-((2-chloro-6-cyclopropylbenzyl)oxy)-1′,3′-dihydrospiro[azetidine-3,2′-inden]-1-yl)acetic acid]
≤ 0.01	> 1	> 1	< 1	O=C(O)CN1CC2(Cc3ccc(OCc4cccc(Cl)c4)cc3C2)C1 [Example 16, 2-(5′-((3-chlorobenzyl)oxy)-1′,3′-dihydrospiro[azetidine-3,2′-inden]-1-yl)acetic acid compound with acetic acid (1:1)]
≤ 0.01	> 1	> 1	< 1	O=C(O)CN1CC2(Cc3ccc(OCc4cc(Cl)ccc4Cl)cc3C2)C1 [Example 23, 2,2,2-trifluoroacetic acid compound with 2-(5′-((2,5-dichlorobenzyl)oxy)-1′,3′-dihydrospiro[azetidine-3,2′-inden]-1-yl)acetic acid (1:1)]
≤ 0.01	> 1	> 1	< 1	CCc1cccc(Cl)c1COc1ccc2c(c1)CC1(C2)CN(CC(=O)O)C1 [Example 24, 2,2,2-trifluoroacetic acid compound with 2-(5′-((2-chloro-6-ethylbenzyl)oxy)-1′,3′-dihydrospiro[azetidine-3,2′-inden]-1-yl)acetic acid (1:1)]
≤ 0.01	–	> 1	< 1	CCc1cccc(Cl)c1COc1ccc2c(c1)CC1(C2)CN(CC(C)CC(=O)O)C1 (stereo not shown) [Example 64, 4-(5′-((2-chloro-6-ethylbenzyl)oxy)-1′,3′-dihydrospiro[azetidine-3,2′-inden]-1-yl)-3-methylbutanoic acid]
≤ 0.01	> 1	–	< 1	O=C(O)CN1CC2(Cc3ccc(C#Cc4ccccc4)cc3O2)C1 [Example 151, 2-(6′-(phenylethynyl)-3′H-spiro[azetidine-3,2′-benzofuran]-1-yl)acetic acid]
